Source: US20130195815A1, “METHOD FOR LABELING INSULIN-SECRETING PANCREATIC BETA CELLS AND OBTAINING PURIFIED INSULIN-SECRETING PANCREATIC B-CELLS AND AN INSULIN REPORTED” (NORTH CAROLINA CENTRAL UNIVERSITY, priority 2011, published 2013)

Tested on: INS-1 cells
Test: GSIS assay: release of PPI-mCherry reporter into conditioned media (relative fluorescence)
Format: cell-based, rat
Settings: INS-1 cells transduced with PPI-mCherry, 2 h
Procedure: (HG—high glucose (25 mM): LG—low glucose (5.6 mM): Ex—10 nM: NF—nifedipine 10 μM, calcium channel blocker/inhibitor) (Y-axis=normalized fluorescent units—FLU).
The reporter system was tested in insulin secretion assays.
GSIS: INS-1 cells were transduced with PPI-mCherry and allowed to recover. […] Conditioned media was removed and spotted onto a membrane and relative fluorescence determined using an Odyssey CLx imager (Licor Corp).

## PPI-mCherry: Genetically encoded preproinsulin-mCherry fluorescent protein reporter (SEQ ID NO: 1), delivered by pLenti vector
  glucose stimulated release of the PPI-mCherry reporter (high vs low glucose): 1.7 fold
